Results on 2 molecules are retold here after patent US20140349329A1, “DENSITY ANALYSIS OF ORGANISMS BY MAGNETIC LEVITATION” (President and Fellows of Harvard College, priority 2011, published 2014).

Holding throughout (format): in vivo
Data set [1] concerns embryos of Danio rerio (i.e., zebrafish). Kind of data set: Development of zebrafish embryos levitated in paramagnetic medium. How it is done: To show the applicability of the present methodologies, two experiments using magnetic levitation ([…]) to quantify the change in density in different organisms are described. In particular, experiments were performed on C. elegans and embryos of Danio rerio (i.e., zebrafish). In these embodiments, the paramagnetic salt was chelated Mn•EDTA, and the osmolality of the paramagnetic medium was approximately isotonic with the species under study ( 300 mOsm/kg). The development of zebrafish was monitored over a period of 54 h in a solution of 100 mM Gd•DTPA and 150 mM Gd•DTPA with Percoll and a saline solution (FIG. 4). […] In these experiments, four zebrafish embryos (collected from one strain of fish) were placed into a paramagnetic medium containing Gd•DTPA, Percoll and saline buffer. For these experiments, polystyrene spheres were included as density controls. After 16 hours of monitoring development, the levitation medium was changed to one composed of a higher concentration of the gadolinium chelate.

Data set [2] has as its system C. elegans. Kind of data set: Density of C. elegans by magnetic levitation (MagLev) after exposure to drug. Conditions: worms treated with 6 mM aspirin (and Nile Red); medium 33% Percoll, 67% M9 buffer, 135 mM Mn•EDTA, 0.057 mM Ivermectin; T=23° C; N=10 worms; untreated 1.074±0.001. The protocol: To show the applicability of the present methodologies, two experiments using magnetic levitation (MagLev) to quantify the change in density in different organisms are described. In particular, experiments were performed on C. elegans and embryos of Danio rerio (i.e., zebrafish). In these embodiments, the paramagnetic salt was chelated Mn•EDTA, and the osmolality of the paramagnetic medium was approximately isotonic with the species under study (˜300 mOsm/kg).
In the experiments on C. elegans, the organism was exposed to aspirin, which results in an accumulation of lipids in the organism due to the sequestration of coenzyme A and the inhibition of fatty acid degradation. A density estimate of C. elegans exposed to aspirin and the density of control C. elegans that were not exposed to aspirin was determined via a Percoll gradient. […] Aspirin-treated C. elegans were centrifuged with a set of density marker beads in order to measure the density of different populations of C. elegans qualitatively and to establish the ranges of interest for quantitative density measurements using MagLev. […]
Using MagLev, the density of different populations of C. elegans was calculated with high precision. […] The magnetic levitation set up used to quantify the density of each worm involved placing the sample between two magnets. […]

For data set [3], the system named is C. elegans. Kind of data set: Density estimate of C. elegans by centrifugation in a Percoll gradient with density marker beads. Conditions: qualitative. The protocol:
In the experiments on C. elegans, the organism was exposed to aspirin, which results in an accumulation of lipids in the organism due to the sequestration of coenzyme A and the inhibition of fatty acid degradation. A density estimate of C. elegans exposed to aspirin and the density of control C. elegans that were not exposed to aspirin was determined via a Percoll gradient. The density of C. elegans changed upon exposure to aspirin with respect to an unexposed control group. Aspirin-treated C. elegans were centrifuged with a set of density marker beads in order to measure the density of different populations of C. elegans qualitatively and to establish the ranges of interest for quantitative density measurements using MagLev. A chelated form of manganese, ethylenediaminetetraacetic acid disodium manganese salt (Mn•EDTA), was used in the MagLev experiments as it is FDA approved for in vivo applications. The analysis of treated and untreated populations of C. elegans by MagLev employed concentrations of Mn•EDTA up to several hundred millimolar. C. elegans were motile within the paramagnetic solution and their swimming motion counteracted the balance of magnetic and gravitational forces within the MagLev device. Ivermectin was introduced into the paramagnetic solution to paralyze the organisms, this stabilized the organisms within the MagLev device.

With `O=C([O-])CN(CCN(CC(=O)[O-])CC(=O)O)CCN(CC(=O)[O-])CC(=O)O.[Gd+3]` [Gd•DTPA], the “development of embryos in the paramagnetic solution” value in data set [1] (100 mM and 150 mM Gd•DTPA with Percoll and saline solution, monitored over 54 h) is listed as “not affected”. In addition, in data set [1] (medium changed after 16 hours to a higher concentration of the gadolinium chelate), the “morphology of the embryos after increase in concentration of the paramagnetic salt” value is recorded as “did not affect the morphology”.
Take `CC(=O)Oc1ccccc1C(=O)O` [aspirin]: the “density of worms (MagLev)” value with C. elegans [2] stood at 1.070 ± 0.002 g/mL. In addition, the “density of C. elegans upon exposure, with respect to unexposed control group” value in the data set on C. elegans [3] is “changed”.
